The source made the active and inactive calls. For most assays here, no stated cut-off is given here; in the data, actives have a measured EC50 and inactives only a lower limit.
What was measured:
BJ [1] = assay: BJ-TERT-LT-ST fibroblast viability loss – cell-based, RAS-independent, luminescence, dose response (AID 1935); type: functional; conditions: Homo sapiens;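 further: BJ fibroblasts immortalized with TERT plus LT and ST oncogenes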
BJ [2] = assay: BJ-TERT fibroblast viability loss – cell-based, RAS-independent, luminescence, dose response (AID 1933); type: functional; conditions: Homo sapiens
[3] = DRD fibroblast viability loss – cell-based, non-viral oncogenic, luminescence, dose response (AID 1934); type: functional; conditions: Homo sapiens
BJ [4] = assay: cells; type: functional, cell-based; conditions: Homo sapiens
[5] = target: T1, Heat shock factor protein 1 (Mus musculus, UniProt P38532); assay: enhancement of HSF1-driven luciferase signal – cell-based, NIH3T3, luminescence, dose retest, confirmation (AID 435004); type: functional;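 further: stress induced by proteasome inhibitor MG132 added 30 min after compound; luciferase reporter driven by HSF1 response element in NIH3T3 cells; actives raise luminescence as potentiators of the MG132 stress response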
T1 sequence (P38532 whole entry): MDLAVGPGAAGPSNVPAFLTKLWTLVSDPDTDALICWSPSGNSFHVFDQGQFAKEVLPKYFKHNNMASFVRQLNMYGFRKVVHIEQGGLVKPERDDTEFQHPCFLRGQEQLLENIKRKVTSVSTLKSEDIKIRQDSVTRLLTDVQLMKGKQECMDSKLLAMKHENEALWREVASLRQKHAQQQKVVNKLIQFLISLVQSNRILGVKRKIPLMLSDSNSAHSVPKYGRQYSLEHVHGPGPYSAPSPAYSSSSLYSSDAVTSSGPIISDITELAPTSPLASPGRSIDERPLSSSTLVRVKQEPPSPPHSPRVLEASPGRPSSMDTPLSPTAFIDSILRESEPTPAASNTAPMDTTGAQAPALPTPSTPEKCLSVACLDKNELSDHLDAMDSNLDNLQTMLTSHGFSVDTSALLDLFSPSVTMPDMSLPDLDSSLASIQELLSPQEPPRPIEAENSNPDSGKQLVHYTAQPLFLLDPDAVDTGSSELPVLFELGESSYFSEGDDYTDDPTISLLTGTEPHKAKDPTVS

[6] = fluconazole-exposed Candida albicans growth modulators – fluorescence, retest, confirmation (AID 2467); type: functional, cell-based
[7] = NIH-3T3 fibroblast cytotoxicity, dose response, cytotoxicity control, cell-based, fluorescence, Alamar Blue, secondary assay (AID 2327); type: functional;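 further: NIH-3T3 mouse fibroblasts cultured with fluconazole at 8 µg/mL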
H9c2 = assay: cells; type: functional, cell-based; conditions: Rattus norvegicus, H9c2, Myocardium
Streptococcus = assay: GAS UMAA2166 growth inhibition – luminescence, BacTiterGlo, counter-screen for streptokinase expression inhibitor project, dose response (AID 1915); type: functional, organism-based;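 further: potency for reduction of bacterial viability or growth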
[8] = test system: Streptococcus sp. 'group A'; assay: Streptococcus pyogenes SK(-)GAS viability under kanamycin – luminescence, BacTiterGlo, confirmation, counter-screen for streptokinase expression inhibitor project, dose response (AID 1900); type: functional, organism-based
Streptokinase A = target: T2, Streptokinase A (Streptococcus pyogenes serotype M1, UniProt P10520); assay: viability-normalized secreted streptokinase activity reduction – plasminogen activation absorbance, OD405, dose response (AID 1914); type: functional, Streptococcus pyogenes M1 GAS;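 further: secreted streptokinase activity via plasminogen activation per viability signal from cell pellet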
T2 sequence (P10520 whole entry): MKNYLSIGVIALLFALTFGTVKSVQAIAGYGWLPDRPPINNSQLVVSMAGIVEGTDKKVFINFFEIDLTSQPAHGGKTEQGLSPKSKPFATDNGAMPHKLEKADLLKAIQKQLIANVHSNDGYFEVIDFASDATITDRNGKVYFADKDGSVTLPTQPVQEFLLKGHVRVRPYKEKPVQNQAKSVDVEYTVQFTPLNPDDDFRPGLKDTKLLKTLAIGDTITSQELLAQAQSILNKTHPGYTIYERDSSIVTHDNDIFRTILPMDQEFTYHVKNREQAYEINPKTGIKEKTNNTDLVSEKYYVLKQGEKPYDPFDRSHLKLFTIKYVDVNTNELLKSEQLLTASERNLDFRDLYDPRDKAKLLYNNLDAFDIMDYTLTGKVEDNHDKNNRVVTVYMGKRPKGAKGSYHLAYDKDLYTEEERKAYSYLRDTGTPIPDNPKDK

[9] = target: T3, Corticotropin-releasing factor receptor 2/Corticotropin-releasing factor-binding protein (Homo sapiens, UniProt P24387+Q13324); assay: activators of CRF receptor 2 with binding protein – uHTS hits, confirmation (AID 602473); type: functional; conditions: read-out: EC50_Mean
T3 sequence (Q13324 whole entry): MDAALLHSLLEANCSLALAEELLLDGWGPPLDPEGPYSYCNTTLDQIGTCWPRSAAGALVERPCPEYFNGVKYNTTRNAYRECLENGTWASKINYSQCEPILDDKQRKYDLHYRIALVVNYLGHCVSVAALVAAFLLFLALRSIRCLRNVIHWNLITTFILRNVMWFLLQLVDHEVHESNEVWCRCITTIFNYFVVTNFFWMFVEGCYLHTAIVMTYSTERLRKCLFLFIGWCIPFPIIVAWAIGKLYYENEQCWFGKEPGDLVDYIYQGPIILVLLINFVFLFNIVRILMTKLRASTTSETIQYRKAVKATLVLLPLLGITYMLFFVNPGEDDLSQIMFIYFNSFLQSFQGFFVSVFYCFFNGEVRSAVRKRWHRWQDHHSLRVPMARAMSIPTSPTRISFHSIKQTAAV
T3 sequence (P24387 whole entry): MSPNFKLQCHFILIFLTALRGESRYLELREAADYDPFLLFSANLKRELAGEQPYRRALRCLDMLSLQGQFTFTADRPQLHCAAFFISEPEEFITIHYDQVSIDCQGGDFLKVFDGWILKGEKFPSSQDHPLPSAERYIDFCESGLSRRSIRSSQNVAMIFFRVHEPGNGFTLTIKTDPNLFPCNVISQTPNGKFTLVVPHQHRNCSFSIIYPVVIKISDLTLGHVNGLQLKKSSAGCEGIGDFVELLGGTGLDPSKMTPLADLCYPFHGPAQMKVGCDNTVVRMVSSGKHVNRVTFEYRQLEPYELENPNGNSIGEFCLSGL

Genome polyprotein = Genome polyprotein (dengue virus type 2, UniProt P29990); assay: flavivirus cap methylation enzyme inhibition – biochemical, confirmation dose response, primary screen (AID 588689); type: functional
Chain of Genome polyprotein (P29990 2492-3391 limits assumed): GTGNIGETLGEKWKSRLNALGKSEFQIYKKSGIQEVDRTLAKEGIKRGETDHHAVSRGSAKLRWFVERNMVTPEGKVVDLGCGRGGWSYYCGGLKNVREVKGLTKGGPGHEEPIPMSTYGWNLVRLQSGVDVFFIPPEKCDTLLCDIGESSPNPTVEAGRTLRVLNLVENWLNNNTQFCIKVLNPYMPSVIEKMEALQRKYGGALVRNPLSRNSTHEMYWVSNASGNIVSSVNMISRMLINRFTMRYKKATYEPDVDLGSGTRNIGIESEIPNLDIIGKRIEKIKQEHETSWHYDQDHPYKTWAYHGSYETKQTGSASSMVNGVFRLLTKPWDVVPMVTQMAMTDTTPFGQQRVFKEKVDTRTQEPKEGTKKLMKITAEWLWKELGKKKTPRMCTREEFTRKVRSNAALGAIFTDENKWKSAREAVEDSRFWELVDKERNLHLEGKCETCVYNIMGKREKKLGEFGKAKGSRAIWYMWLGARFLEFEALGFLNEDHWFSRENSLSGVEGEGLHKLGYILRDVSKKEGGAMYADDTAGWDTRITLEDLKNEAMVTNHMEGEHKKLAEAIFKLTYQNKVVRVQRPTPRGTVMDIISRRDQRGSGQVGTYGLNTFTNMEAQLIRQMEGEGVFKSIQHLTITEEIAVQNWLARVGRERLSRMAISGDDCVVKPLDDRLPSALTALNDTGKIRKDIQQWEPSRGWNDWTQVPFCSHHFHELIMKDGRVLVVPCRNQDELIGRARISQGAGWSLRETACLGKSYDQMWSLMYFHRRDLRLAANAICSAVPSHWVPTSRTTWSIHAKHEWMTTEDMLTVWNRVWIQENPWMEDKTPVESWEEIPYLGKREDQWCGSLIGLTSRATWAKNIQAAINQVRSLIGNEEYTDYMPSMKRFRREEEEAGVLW

Protein RecA = target: T4, Protein RecA (Mycobacterium tuberculosis, UniProt P9WHJ3); assay: Fluorescence Cell-Free Homogeneous Dose Retest to Identify Inhibitors of RecA-Intein Splicing Activity. [Related pubchem assays (depositor defined):AID2097, AID2223, AID489010, AID492950]; type: functional
T4 sequence (P9WHJ3 whole entry): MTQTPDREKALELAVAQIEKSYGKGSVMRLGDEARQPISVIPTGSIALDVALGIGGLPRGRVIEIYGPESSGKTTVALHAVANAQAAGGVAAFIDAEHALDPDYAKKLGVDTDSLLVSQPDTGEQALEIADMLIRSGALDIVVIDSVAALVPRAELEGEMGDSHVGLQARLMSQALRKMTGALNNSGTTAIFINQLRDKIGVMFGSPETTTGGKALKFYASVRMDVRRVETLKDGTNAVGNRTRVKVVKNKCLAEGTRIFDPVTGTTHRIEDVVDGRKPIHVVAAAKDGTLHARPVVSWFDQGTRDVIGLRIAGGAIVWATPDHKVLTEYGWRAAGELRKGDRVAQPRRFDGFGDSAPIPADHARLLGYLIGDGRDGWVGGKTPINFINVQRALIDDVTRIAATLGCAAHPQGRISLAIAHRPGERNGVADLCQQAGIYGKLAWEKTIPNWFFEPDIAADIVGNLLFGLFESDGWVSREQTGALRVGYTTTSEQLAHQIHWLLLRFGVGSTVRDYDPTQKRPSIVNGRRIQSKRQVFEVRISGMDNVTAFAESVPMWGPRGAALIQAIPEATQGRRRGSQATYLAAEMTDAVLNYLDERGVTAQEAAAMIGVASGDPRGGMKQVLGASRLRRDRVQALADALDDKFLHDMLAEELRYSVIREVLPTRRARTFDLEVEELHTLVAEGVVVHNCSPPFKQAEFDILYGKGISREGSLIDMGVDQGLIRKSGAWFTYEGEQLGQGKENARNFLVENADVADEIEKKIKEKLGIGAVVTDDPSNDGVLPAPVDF

[10] = target: T5, Replicative DNA helicase DnaB (Mycobacterium tuberculosis, UniProt P9WMR3); assay: DnaB intein splicing inhibitors, dose response, biochemical, cell-free fluorescence (AID 449749); type: functional
T5 sequence (P9WMR3 whole entry): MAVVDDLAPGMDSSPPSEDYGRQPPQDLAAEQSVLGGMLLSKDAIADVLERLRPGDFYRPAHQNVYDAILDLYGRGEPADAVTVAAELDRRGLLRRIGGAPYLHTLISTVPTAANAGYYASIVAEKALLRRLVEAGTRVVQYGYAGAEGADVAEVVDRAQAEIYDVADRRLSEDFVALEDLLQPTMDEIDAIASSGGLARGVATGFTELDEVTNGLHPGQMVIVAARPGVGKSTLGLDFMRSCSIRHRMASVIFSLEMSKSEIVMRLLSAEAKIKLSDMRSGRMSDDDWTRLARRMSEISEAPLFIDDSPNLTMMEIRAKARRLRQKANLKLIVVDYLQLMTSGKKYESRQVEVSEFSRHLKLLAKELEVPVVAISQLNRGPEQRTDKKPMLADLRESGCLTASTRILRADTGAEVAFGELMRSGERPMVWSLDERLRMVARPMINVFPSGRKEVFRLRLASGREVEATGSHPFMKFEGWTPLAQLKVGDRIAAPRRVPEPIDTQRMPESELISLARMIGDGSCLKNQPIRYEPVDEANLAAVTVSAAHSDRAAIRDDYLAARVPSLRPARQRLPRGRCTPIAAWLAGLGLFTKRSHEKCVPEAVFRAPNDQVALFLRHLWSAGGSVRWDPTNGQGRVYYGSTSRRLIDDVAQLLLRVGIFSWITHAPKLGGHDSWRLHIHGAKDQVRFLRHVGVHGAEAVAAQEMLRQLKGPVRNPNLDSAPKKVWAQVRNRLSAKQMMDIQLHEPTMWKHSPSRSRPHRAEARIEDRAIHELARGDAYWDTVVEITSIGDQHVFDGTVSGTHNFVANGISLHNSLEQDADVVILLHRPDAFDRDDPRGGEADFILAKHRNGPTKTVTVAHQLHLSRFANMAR

[11] = reduction of Shn3 3'UTR-driven luciferase in osteoblasts – cell-based, Clone20 osteoblasts, firefly luciferase, cherry-picked, dose response (AID 624132); type: functional;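 further: firefly luciferase luminescence from reporter carrying the Shn3 3'UTR in osteoblasts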

## c1ccc(-c2cnnc(SCc3cn4cccnc4n3)n2)cc1
BJ [1]
  EC50: > 150 µM (inconclusive)
BJ [2]
  EC50: > 150 µM (not active)
[3]
  EC50: 24.9 µM (active)
BJ [4]
  EC50: > 150 µM (inconclusive)

## Cc1noc(C)c1COC(=O)c1ccccc1Oc1ccccc1
[5]
  EC50: > 260 µM (inactive)

## CC(C)Cc1ccc(CN2CCCC(NC(=O)CCN3CCCO3)C2)cc1 (centres undefined)
[6]
  EC50: > 38 µM (not active)
[7]
  EC50: > 160 µM (inconclusive)

## COc1cc(NC(=O)c2c(OC)cccc2OC)ccc1NC(=O)c1cc2ccccc2o1
H9c2
  IC50: > 79 µM (inactive)

## Cc1ccc2nc(NCc3ccccc3)c(C=O)c(=O)n2c1
[5]
  EC50: > 260 µM (inactive)

## CC(Sc1ccc(Cl)cc1)C(=O)NCc1ccc2c(c1)OCO2 (centres undefined)
[6]
  EC50: 2.94 µM (active)
[7]
  EC50: > 150 µM (inactive)

## CCCc1nc2ccc(NC(=O)c3cccs3)cc2c(=O)n1Cc1ccccc1Cl
[5]
  EC50: > 260 µM (inactive)

## COc1cccc(OC)c1C(=O)Nc1cc(C)nn1-c1nc2ccccc2[nH]1
H9c2
  IC50: > 79 µM (inactive)
Streptococcus
  EC50: > 150 µM (not active)
[8]
  EC50: 15.5 µM (active)
Streptokinase A
  EC50: > 150 µM (not active)

## COc1cc(NC(=O)c2ccco2)c(C(=O)OCC(=O)c2c[nH]c3ccccc23)cc1OC
H9c2
  IC50: > 79 µM (inactive)

## CCC1(CC)NC(=O)N(CC(=O)OCC(=O)Nc2ccccc2[N+](=O)[O-])C1=O
H9c2
  IC50: 11.9 µM (active)

## O=C(Cn1[nH]c(=O)c2ccccc2c1=O)NCC1COc2ccccc2O1 (centres undefined)
H9c2
  IC50: 48.7 µM (inactive)

## O=C(CCN1C(=O)/C(=C/c2ccc(Cl)cc2)SC1=S)Nc1cccnc1
BJ [1]
  EC50: > 150 µM (not active)
BJ [2]
  EC50: 14.9 µM (active)
[3]
  EC50: 24.7 µM (active)
BJ [4]
  EC50: > 150 µM (not active)

## CC(C)c1ccc2c(c1)[C@H]1OCC[C@H]1[C@@H](c1cccs1)N2
[5]
  EC50: > 260 µM (inactive)

## COc1ccc(-n2cccc2/C=C2\C(=N)N3N=C(C(C)C)SC3=NC2=O)cc1
[6]
  EC50: > 38 µM (not active)
[7]
  EC50: > 150 µM (inactive)

## COc1ccc(OC)c(N(CC(=O)N2CCC(C)CC2)S(=O)(=O)c2ccccc2)c1
[5]
  EC50: > 260 µM (inactive)

## Cc1c(-c2nnc(S)n2-c2ccc(C(F)(F)F)cc2)nnn1-c1ccccc1
[5]
  EC50: > 260 µM (inactive)

## COc1cccc(NC(=S)NC(=O)Cc2ccc(Cl)cc2)c1
[9]
  EC50: 5.76 µM (active)

## COc1cc(C(=O)NCCc2ccc(F)cc2)ccc1OCC(=O)N1CCOCC1
[5]
  EC50: > 260 µM (inactive)

## O=S(=O)(NC1CCCCC1N1CCN(c2ccccc2F)CC1)c1ccc(Cl)cc1 (centres undefined)
[9]
  EC50: 6.24 µM (active)

## CC(C)c1ccc(N(C(=O)CNC(=O)c2ccco2)C(C(=O)NC2CCCC2)c2ccncc2)cc1 (centres undefined)
[5]
  EC50: > 260 µM (inactive)

## CCc1nc2ccccc2c(C(=O)OCc2nc(O)c3ccccc3n2)c1C
H9c2
  IC50: 5.84 µM (active)

## O=C(Nc1ccccc1)c1cccc2c(-c3cccnc3)coc12
H9c2
  IC50: > 79 µM (inactive)

## CCCCc1ccc(/N=C/C2=C(O)OC3(CCCCC3)OC2=O)cc1
[9]
  EC50: 5.81 µM (active)

## O=C(N/N=C/c1ccccn1)c1cc(-c2ccncc2)nc2ccccc12
H9c2
  IC50: > 79 µM (inactive)

## COC1=CC(=O)C(O)=C(CCCCCCC/C=C/CCCCCCCC2=C(O)C(=O)C=C(OC)C2=O)C1=O
Genome polyprotein
  IC50: 10.8 µM (active)
Protein RecA
  EC50: 2.13 µM (active)
[6]
  EC50: > 38 µM (not active)
[10]
  AC50: 2.6 µM (active)
[7]
  EC50: > 160 µM (inactive)

## O=C(N/N=C/c1ccc2c(c1)OCO2)c1cc(-c2ccccc2Cl)nc2ccccc12
[6]
  EC50: 0.684 µM (active)
[7]
  EC50: 94.7 µM (inconclusive)

## CC(=O)OCC(=O)[C@@]1(O)CC[C@H]2[C@@H]3CCC4=CC(=O)CC[C@]4(C)[C@H]3C(=O)C[C@@]21C [CORTISONE ACETATE]
[11]
  AC50: 28.3 µM (active)
